Results taken from patent US20100298141A1, “SUBSTITUTED PYRIDINE N-OXIDE HERBICIDES” (E. I. DU PONT DE NEMOURS AND COMPANY, priority 2007, published 2010).

Columns and labels:
[1] = test system: Russian thistle; test: Test C pre-/postemergence test; type: in vivo, Salsola kali; conditions: Preemergence; for Russian Thistle plant response rating: scale 0 to 100
How it was run: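 Test chemicals were formulated with surfactant in a non-phytotoxic solvent and sprayed both on freshly planted seeds (preemergence) and on 1- to 4-leaf plants of 2–18 cm (postemergence). Flooded-paddy pots received compound directly into 3 cm of standing water, maintained for the test.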

[2] = test system: bermudagrass; test: Test F preemergence test; type: in vivo, Cynodon dactylon; conditions: scale 0 to 100
How it was run: (§1)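 Test chemicals in a non-phytotoxic solvent mixture containing a surfactant were applied preemergence to sown seeds or postemergence to sugarcane plants. Treated plants and controls were held in a greenhouse for 14 to 21 days, then visually evaluated against controls.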

[3] = test system: Surinam grass; test: Test F preemergence test; type: in vivo, Brachiaria decumbens; conditions: scale 0 to 100
How it was run: as §1

[4] = test system: large crabgrass; test: Test F preemergence test; type: in vivo, Digitaria sanguinalis; conditions: scale 0 to 100
How it was run: as §1

[5] = test system: goosegrass; test: Test F preemergence test; type: in vivo, Eleusine indica; conditions: scale 0 to 100
How it was run: as §1

[6] = test system: johnsongrass; test: Test F preemergence test; type: in vivo, Sorghum halepense; conditions: scale 0 to 100
How it was run: as §1

[7] = test system: kochia; test: Test F preemergence test; type: in vivo, Kochia scoparia; conditions: scale 0 to 100
How it was run: as §1

[8] = test system: pitted morningglory; test: Test F preemergence test; type: in vivo, Ipomoea lacunosa; conditions: scale 0 to 100
How it was run: as §1

[9] = test system: purple nutsedge; test: Test F preemergence test; type: in vivo, Cyperus rotundus; conditions: scale 0 to 100
How it was run: as §1

[10] = test system: common ragweed; test: Test F preemergence test; type: in vivo, Ambrosia elation; conditions: scale 0 to 100
How it was run: as §1

[11] = test system: guineagrass; test: Test F preemergence test; type: in vivo, Panicum maximum; conditions: scale 0 to 100
How it was run: as §1

[12] = test system: southern sandbur; test: Test F preemergence test; type: in vivo, Cenchrus echinatus; conditions: scale 0 to 100
How it was run: as §1

[13] = test system: prickly sida; test: Test F preemergence test; type: in vivo, Sida spinosa; conditions: scale 0 to 100
How it was run: as §1

[14] = test system: Italian ryegrass; test: Test F preemergence test; type: in vivo, Lolium multiflorum; conditions: scale 0 to 100
How it was run: as §1

[15] = test system: common purslane; test: Test F preemergence test; type: in vivo, Portulaca oleracea; conditions: scale 0 to 100
How it was run: as §1

[16] = test system: common groundsel; test: Test F preemergence test; type: in vivo, Senecio vulgaris; conditions: scale 0 to 100
How it was run: as §1

[17] = test system: naked crabgrass; test: Test F preemergence test; type: in vivo, Digitaria nuda; conditions: scale 0 to 100
How it was run: as §1

[18] = test system: quackgrass; test: Test F preemergence test; type: in vivo, Elytrigia repens; conditions: scale 0 to 100
How it was run: as §1

## Cn1nc(C(F)(F)F)c(C[S+]([O-])c2cccc[n+]2[O-])c1OC(F)F (stereo not shown) [Compound 3]
[1]; 31 g ai/ha
  Russian Thistle plant response rating: 0
[2]; 8 g ai/ha, preemergence
  Plant response rating, Bermudagrass: 0
[2]; 62 g ai/ha, Preemergence
  Bermudagrass plant response rating: 85
[2]; Preemergence, 16 g ai/ha
  Plant response rating, Bermudagrass: 0
[2]; Preemergence, 31 g ai/ha
  Plant response rating, Bermudagrass: 65
[3]; 8 g ai/ha, preemergence
  Plant response rating, Surinam Grass: 0
[3]; 16 g ai/ha, preemergence
  Plant response rating, Surinam Grass: 0
[3]; 62 g ai/ha, Preemergence
  Surinam Grass plant response rating: 95
[3]; Preemergence, 31 g ai/ha
  Plant response rating, Surinam Grass: 85
[4]; 8 g ai/ha, preemergence
  Plant response rating, Crabgrass, Large: 0
[4]; 62 g ai/ha, Preemergence
  Crabgrass, Large plant response rating: 100
[4]; Preemergence, 16 g ai/ha
  Plant response rating, Crabgrass, Large: 20
[4]; Preemergence, 31 g ai/ha
  Plant response rating, Crabgrass, Large: 70
[5]; 8 g ai/ha, preemergence
  Plant response rating, Goosegrass: 0
[5]; 62 g ai/ha, Preemergence
  Goosegrass plant response rating: 98
[5]; Preemergence, 16 g ai/ha
  Plant response rating, Goosegrass: 40
[5]; Preemergence, 31 g ai/ha
  Plant response rating, Goosegrass: 95
[6]; 8 g ai/ha, preemergence
  Plant response rating, Johnsongrass: 0
[6]; 62 g ai/ha, Preemergence
  Johnsongrass plant response rating: 95
[6]; Preemergence, 16 g ai/ha
  Plant response rating, Johnsongrass: 65
[6]; Preemergence, 31 g ai/ha
  Plant response rating, Johnsongrass: 90
[7]; 8 g ai/ha, preemergence
  Plant response rating, Kochia: 20
[7]; 62 g ai/ha, Preemergence
  Kochia plant response rating: 100
[7]; Preemergence, 16 g ai/ha
  Plant response rating, Kochia: 30
[7]; Preemergence, 31 g ai/ha
  Plant response rating, Kochia: 65
[8]; 8 g ai/ha, preemergence
  Plant response rating, Morningglory: 0
[8]; 62 g ai/ha, Preemergence
  Morningglory plant response rating: 35
[8]; Preemergence, 16 g ai/ha
  Plant response rating, Morningglory: 0
[9]; 8 g ai/ha, preemergence
  Plant response rating, Purple Nutsedge: 0
[9]; 62 g ai/ha, Preemergence
  Purple Nutsedge plant response rating: 80
[9]; Preemergence, 16 g ai/ha
  Plant response rating, Purple Nutsedge: 60
[9]; Preemergence, 31 g ai/ha
  Plant response rating, Purple Nutsedge: 75
[10]; 8 g ai/ha, preemergence
  Plant response rating, Ragweed: 0
[10]; 62 g ai/ha, Preemergence
  Ragweed plant response rating: 90
[10]; Preemergence, 16 g ai/ha
  Plant response rating, Ragweed: 60
[10]; Preemergence, 31 g ai/ha
  Plant response rating, Ragweed: 80
[11]; 8 g ai/ha, preemergence
  Plant response rating, Guineagrass: 0
[11]; 62 g ai/ha, Preemergence
  Guineagrass plant response rating: 100
[11]; Preemergence, 16 g ai/ha
  Plant response rating, Guineagrass: 90
[11]; Preemergence, 31 g ai/ha
  Plant response rating, Guineagrass: 100
[12]; 8 g ai/ha, preemergence
  Plant response rating, Sandbur: 20
[12]; 16 g ai/ha, preemergence
  Plant response rating, Sandbur: 65
[12]; 62 g ai/ha, Preemergence
  Sandbur plant response rating: 95
[12]; Preemergence, 31 g ai/ha
  Plant response rating, Sandbur: 90
[13]; 8 g ai/ha, preemergence
  Plant response rating, Prickly Sida: 0
[13]; 62 g ai/ha, Preemergence
  Prickly Sida plant response rating: 100
[13]; Preemergence, 16 g ai/ha
  Plant response rating, Prickly Sida: 0
[13]; Preemergence, 31 g ai/ha
  Plant response rating, Prickly Sida: 80
[14]; 8 g ai/ha, preemergence
  Plant response rating, Ryegrass, Italian: 0
[14]; 62 g ai/ha, Preemergence
  Ryegrass, Italian plant response rating: 80
[14]; Preemergence, 16 g ai/ha
  Plant response rating, Ryegrass, Italian: 30
[14]; Preemergence, 31 g ai/ha
  Plant response rating, Ryegrass, Italian: 65
[15]; 8 g ai/ha, preemergence
  Plant response rating, Purslane: 0
[15]; 62 g ai/ha, Preemergence
  Purslane plant response rating: 100
[15]; Preemergence, 16 g ai/ha
  Plant response rating, Purslane: 0
[15]; Preemergence, 31 g ai/ha
  Plant response rating, Purslane: 60
[16]; 8 g ai/ha, preemergence
  Plant response rating, Groundsel: 0
[16]; 62 g ai/ha, Preemergence
  Groundsel plant response rating: 100
[16]; Preemergence, 16 g ai/ha
  Plant response rating, Groundsel: 0
[16]; Preemergence, 31 g ai/ha
  Plant response rating, Groundsel: 60
[17]; 8 g ai/ha, preemergence
  Plant response rating, Crabgrass, Naked: 20
[17]; 62 g ai/ha, Preemergence
  Crabgrass, Naked plant response rating: 100
[17]; Preemergence, 16 g ai/ha
  Plant response rating, Crabgrass, Naked: 80
[17]; Preemergence, 31 g ai/ha
  Plant response rating, Crabgrass, Naked: 90
[18]; 8 g ai/ha, preemergence
  Plant response rating, Quackgrass: 0
[18]; 62 g ai/ha, Preemergence
  Quackgrass plant response rating: 75
[18]; Preemergence, 16 g ai/ha
  Plant response rating, Quackgrass: 15
[18]; Preemergence, 31 g ai/ha
  Plant response rating, Quackgrass: 70

## Cc1cc[n+]([O-])c(S(=O)(=O)Cc2c(C(F)(F)F)nn(C)c2Cl)c1 [Compound 19]
[1]; 62 g ai/ha
  Russian Thistle plant response rating: 100
[1]; 31 g ai/ha, scale 0 to 100 (0 no effect, 100 complete control)
  Plant response rating, Russian Thistle: 100
[2]; 62 g ai/ha, Preemergence
  Bermudagrass plant response rating: 60
[2]; 125 g ai/ha, preemergence
  Bermudagrass plant response rating: 95
[2]; Preemergence, 16 g ai/ha
  Plant response rating, Bermudagrass: 0
[2]; Preemergence, 31 g ai/ha
  Plant response rating, Bermudagrass: 40
[3]; 62 g ai/ha, Preemergence
  Surinam Grass plant response rating: 75
[3]; 125 g ai/ha, preemergence
  Surinam Grass plant response rating: 90
[3]; Preemergence, 31 g ai/ha
  Plant response rating, Surinam Grass: 30
[4]; 62 g ai/ha, Preemergence
  Crabgrass, Large plant response rating: 80
[4]; 125 g ai/ha, preemergence
  Crabgrass, Large plant response rating: 95
[4]; Preemergence, 16 g ai/ha
  Plant response rating, Crabgrass, Large: 35
[4]; Preemergence, 31 g ai/ha
  Plant response rating, Crabgrass, Large: 50
[5]; 62 g ai/ha, Preemergence
  Goosegrass plant response rating: 90
[5]; 125 g ai/ha, preemergence
  Goosegrass plant response rating: 100
[5]; Preemergence, 16 g ai/ha
  Plant response rating, Goosegrass: 0
[5]; Preemergence, 31 g ai/ha
  Plant response rating, Goosegrass: 75
[6]; 62 g ai/ha, Preemergence
  Johnsongrass plant response rating: 90
[6]; 125 g ai/ha, preemergence
  Johnsongrass plant response rating: 98
[6]; Preemergence, 16 g ai/ha
  Plant response rating, Johnsongrass: 40
[6]; Preemergence, 31 g ai/ha
  Plant response rating, Johnsongrass: 75
[7]; 62 g ai/ha, Preemergence
  Kochia plant response rating: 0
[7]; 125 g ai/ha, preemergence
  Kochia plant response rating: 100
[7]; Preemergence, 16 g ai/ha
  Plant response rating, Kochia: 0
[7]; Preemergence, 31 g ai/ha
  Plant response rating, Kochia: 0
[8]; 62 g ai/ha, Preemergence
  Morningglory plant response rating: 0
[8]; 125 g ai/ha, preemergence
  Morningglory plant response rating: 0
[8]; Preemergence, 16 g ai/ha
  Plant response rating, Morningglory: 0
[8]; Preemergence, 31 g ai/ha
  Plant response rating, Morningglory: 0
[9]; 62 g ai/ha, Preemergence
  Purple Nutsedge plant response rating: 60
[9]; 125 g ai/ha, preemergence
  Purple Nutsedge plant response rating: 70
[9]; Preemergence, 16 g ai/ha
  Plant response rating, Purple Nutsedge: 0
[9]; Preemergence, 31 g ai/ha
  Plant response rating, Purple Nutsedge: 0
[10]; 62 g ai/ha, Preemergence
  Ragweed plant response rating: 50
[10]; 125 g ai/ha, preemergence
  Ragweed plant response rating: 80
[10]; Preemergence, 16 g ai/ha
  Plant response rating, Ragweed: 0
[10]; Preemergence, 31 g ai/ha
  Plant response rating, Ragweed: 25
[11]; 62 g ai/ha, Preemergence
  Guineagrass plant response rating: 100
[11]; 125 g ai/ha, preemergence
  Guineagrass plant response rating: 100
[11]; Preemergence, 16 g ai/ha
  Plant response rating, Guineagrass: 50
[11]; Preemergence, 31 g ai/ha
  Plant response rating, Guineagrass: 80
[12]; 62 g ai/ha, Preemergence
  Sandbur plant response rating: 90
[12]; 125 g ai/ha, preemergence
  Sandbur plant response rating: 100
[12]; Preemergence, 31 g ai/ha
  Plant response rating, Sandbur: 60
[13]; 62 g ai/ha, Preemergence
  Prickly Sida plant response rating: 30
[13]; 125 g ai/ha, preemergence
  Prickly Sida plant response rating: 60
[13]; Preemergence, 16 g ai/ha
  Plant response rating, Prickly Sida: 0
[13]; Preemergence, 31 g ai/ha
  Plant response rating, Prickly Sida: 20
[14]; 62 g ai/ha, Preemergence
  Ryegrass, Italian plant response rating: 50
[14]; 125 g ai/ha, preemergence
  Ryegrass, Italian plant response rating: 65
[14]; Preemergence, 16 g ai/ha
  Plant response rating, Ryegrass, Italian: 0
[14]; Preemergence, 31 g ai/ha
  Plant response rating, Ryegrass, Italian: 10
[15]; 62 g ai/ha, Preemergence
  Purslane plant response rating: 0
[15]; 125 g ai/ha, preemergence
  Purslane plant response rating: 0
[15]; Preemergence, 16 g ai/ha
  Plant response rating, Purslane: 0
[15]; Preemergence, 31 g ai/ha
  Plant response rating, Purslane: 0
[16]; 62 g ai/ha, Preemergence
  Groundsel plant response rating: 15
[16]; 125 g ai/ha, preemergence
  Groundsel plant response rating: 70
[16]; Preemergence, 16 g ai/ha
  Plant response rating, Groundsel: 0
[16]; Preemergence, 31 g ai/ha
  Plant response rating, Groundsel: 0
[17]; 62 g ai/ha, Preemergence
  Crabgrass, Naked plant response rating: 100
[17]; 125 g ai/ha, preemergence
  Crabgrass, Naked plant response rating: 100
[17]; Preemergence, 16 g ai/ha
  Plant response rating, Crabgrass, Naked: 70
[17]; Preemergence, 31 g ai/ha
  Plant response rating, Crabgrass, Naked: 70
[18]; 62 g ai/ha, Preemergence
  Quackgrass plant response rating: 40
[18]; 125 g ai/ha, preemergence
  Quackgrass plant response rating: 60
[18]; Preemergence, 16 g ai/ha
  Plant response rating, Quackgrass: 0
[18]; Preemergence, 31 g ai/ha
  Plant response rating, Quackgrass: 0
